Results: patent US9290740B2, “Use of basic fibroblast growth factor in the de-differentiation of animal connective tissue cells” (Worcester Polytechnic Institute, priority 2008, dated 2016)
“Also recorded” adds a separate entry of the source.

Test system: FGFR1, FGFR2, FGFR3, FGFR4 and FGF2 in adult human dermal fibroblasts
Test: Expression and localization of FGF2 and FGF receptors (RT-PCR, immunocytochemistry)
Assay type: cell-based
Description: Adult human fibroblasts (CRL-2352, ATCC) were cultured in conditions of 37° C., 5% CO2, 5% O2 90% N2 were seeded into 24 well plates (BD Falcon) either without substrate or with 15 mm Thermanox® coverslips (Nalge Nunc) at 5,000 cells per well in medium consisting of DMEM with 4 mM fresh L-glutamine: Ham's F12 medium (50:50) supplemented with 1×TCH serum replacement (Protide Pharmaceuticals), 1×ITS-X (Invritrogen), 2% FetalClone III (Hyclone), and 4 ng/ml FGF2 (Chemicon). After 5 days, the cells were washed with DPBS w/o Ca/Mg (Mediatech) and fixed in methanol (−20° C.) for 10 min, washed with DPBS and stored in DPBS at 4° C. until use. For detection of nuclear antigens (Msx-1, Msx-2, Sox-2, Oct-4 and Nanog), enhanced nuclear membrane permeabilization was performed by incubation with 1.5 N HCl for 20 min, followed by 3 washes (5 min) in PBS. For immuno-cytochemistry, cells were washed with PBS/Tween (PBS, MediaTech with 0.05% Tween-20, Biorad) and blocked for 30 min at RT with PBS containing 0.05% Tween, 5% FBS, and 1% BSA). Primary antibodies (1:200 dilution) were added in blocking solution for 30 min at RT. Cells were washed 4× in PBS/Tween and Alexafluor-568 labeled appropriate secondary antibody diluted 1:1000 in blocking solution added for 30 min. Cells were washed 4× in PBS/Tween and stored in PBS at 4 C until image analysis. Antibodies used were: Msx-1 (SantaCruz, sc-17726), Msx-2 (Santa Cruz, sc-17729), Sox-2 (Abeam, ab15830), Oct4 (Santa Cruz, sc-8630), Nanog (abeam ab21624) FGF receptor-1 (Abgent, AP7636a), FGF Receptor-2 (Abgent, AP7636a), FGF2 (N-terminus, Santa Cruz sc-1390), FGF2 (internal, Santa Cruz sc-79), fibroblast specific protein (FSP, Sigma). Coverslips were removed and mounted onto glass slides in 80% glycerol in PBS containing 0.1% Na-Azide and sealed with nail polish. Cells were visualized using at Olympus IX81 inverted microscope with epi-fluorescence using appropriate filters (Semrock, Inc.) and phase contrast. Images were collected using a 12 bit Hamamatzu CCD camera (Model C4742-80-12AG) and images processes using Slidebook®. […]

## FGF2: human recombinant FGF2 (Invitrogen, Chemicon or Protide), basic fibroblast growth factor
FGF2 addition
  FGFR4 localization: no effect
Cells supplemented with FGF2
  localization of FGF2, FGFR1 and FGFR2 (immunocytochemistry): in the nucleus as well as on the cell surface; also recorded: translocated to the nucleus
Regardless of the culture conditions
  transcription of FGF receptors or FGF2 itself: no significant effect
